Key:
[1] = system: SEM-K2 cells; test: Combination therapy with EB10 and MTX in SEM-K2 Leukemia Model; type: in vivo, NOD/SCID mice; settings: EB10 10 mg/kg i.p. 2×/week; MTX 100 mg/kg Q7D; combination of both
Description: One day prior to the start of treatment, i.v. inject 65, 7 weeks old, male NOD/SCID mice with 5×10^5 SEM-K2 cells suspended in PBS in a total volume of 200 μl. Drop from the study mice receiving less than 90% of cells intravenously.
Prepare MTX (Sigma Chemical, Cat # M9929) in USP Saline at a concentration of 10 mg/ml and dose Q7D for three cycles. […] Dose all mice at 10 ml/kg i.p. In the combination group, dose MTX at least one hour before EB 10 treatment starting on day 1. Record mouse survival daily. Follow the mice for survival, and sacrifice any mouse displaying signs of morbidity/mortality; mark as dead on the day of sacrifice. End the study on day 168 and sacrifice any mice surviving to that point. Compare survival in the treatment groups by Log Rank Test between treatment groups.

[2] = system: BaF3-ITD cells; test: Cell proliferation assay ([3H]-thymidine), FL-independent, BaF3-ITD; type: cell-based
Description: Harvest EOL-1 cells and wash three times using serum-free RPMI 1640 medium. Culture cells in serum-free RPMI 1640 medium for 12 hours. For BaF3-ITD cells, perform the proliferation assay in RPMI 1640 medium supplemented with 10% FCS in the absence of exogenous FL. Reconstitute cells in serum-free AIM-V medium, plate in triplicates in a flat-bottomed 96-well plate (1×104/100 μl/well) and incubate with varying concentrations of antibodies (from 0 to 100 nM) and 30 ng/ml of FL at 37° C. for 68 hours. As a background control, incubate cells with medium alone in the absence of exogenous FL. Pulse cells with 0.25 μCi/well of [^3H]-thymidine for 4 hours. Harvest cells and measure cpm in a PerkinElmer Wallace-1205 Betaplate Liquid Scintillation Counter (Wellesley, Mass.). Calculate the percent inhibition of FL-induced proliferation for EOL-1 cells; deduce the cpm of background proliferation (i.e., cell samples not stimulated with FL) from the cpm of all experimental samples. Calculate percent inhibition using the following formula: [(cpm of untreated sample—cpm of antibody-treated sample)/cpm of untreated sample]×100%.

[3] = system: EOL-1 leukemia cells; test: EOL-1 Xenograft Human AML Leukemia Model; type: in vivo, NOD-SCID mice; settings: 10 μg
[4] = system: Human Leukemia Cells; test: Bone Marrow Engraftment of Human Leukemia Cells; type: in vivo, mice; settings: 500 μg/dose, versus control-IgG treated group
Description: Bone Marrow Engraftment of Human Leukemia Cells: Harvest bone marrow from the femurs of EB10-treated mice (500 μg/dose) and the control-IgG treated group at day 20. Analyze cells for human CD45 by flow cytometry at 6 and 14 weeks post leukemia cell injection for the degree of tumor cell infiltration of bone marrow. Compare the degree of tumor cell infiltration of bone marrow using immunohistochemical staining with a fluorescence-labeled anti-human CD45 antibody.

[5] = system: FLT3-negative JM1 or BaF3-control cell lines; test: Flow cytometric analysis, FLT3-negative cell lines; type: binding

`CN(Cc1cnc2nc(N)nc(N)c2n1)c1ccc(C(=O)N[C@@H](CCC(=O)O)C(=O)O)cc1` [MTX, methotrexate, reference compound] was tested, and the “mouse survival” value [1] was “also prolonged survival”.

For “EB10: recombinant human monoclonal antibody, full length IgG1κ targeting human FLT3; heavy chain SEQ ID NO:25, light chain SEQ ID NO:28”, the “% Inhibition of FL-independent proliferation (Mean ± Standard deviation)” value (“% Inhibition … (Mean ± Standard deviation)” for short) ([2]; 6 nM) was 9.6 ± 3.1%, the “% Inhibition … (Mean ± Standard deviation)” value ([2]; 13 nM) was 13.0 ± 4.0% and the “% Inhibition … (Mean ± Standard deviation)” value ([2]; 25 nM) was 23.3 ± 0.6%. The “% Inhibition … (Mean ± Standard deviation)” value ([2]; 50 nM) was 28.6 ± 3.1%, the “% Inhibition … (Mean ± Standard deviation)” value ([2]; 100 nM) was 29.2 ± 3.0% and the “effect on survival” value [3] was “No effect”. For the same compound, the “mouse survival” value [1] was “significantly prolonged mouse survival”, the “number of tumor cells in bone marrow (human CD45)” value [4] was “decreased significantly” and the “binding by flow cytometric analysis” value ([5]; BaF3-control cell line) was “No binding”. For the same compound, the “binding by flow cytometric analysis” value ([5]; FLT3-negative JM1 cell line) was “No binding”.
